Source: patent US20240285631A1, “METHODS OF TREATING VASCULAR MALFORMATIONS” (priority 2023, published 2024)
“Also recorded” adds a separate entry of the source.

Experiments:
[1] = system: brain vascular anomalies in adult Alk1 mutant animals; test: Brain vasculature of adult Alk1 mutant animals (HHT model); type: in vivo, mouse; settings: 3 doses 120 mg/kg oral gavage at day 7, 9 and 11 after tamoxifen, 3 weeks after induction
Description: Euthanized animals have been perfused with colored reagent to visualize the blood vessels.

[2] = system: ENDOGLIN; test: ENDOGLIN expression in retinal venous ECs of Alk1EC^iKO mice; type: in vivo, mouse; settings: both mRNA and protein levels
Experimental: FIG. 8A illustrates Western Blot analysis of the phosphorylation of the indicated proteins in response to VEGF-A (1.5 nM) in control vs. CDK4/6i treated HUVECs. FIG. 8B illustrates Western Blot analysis of the phosphorylation of the indicated proteins in response to BMP9 (10 ng/ml) in control vs. CDK4/6i-treated HUVECs. FIG. 8C illustrates quantification of phosphorylation normalized to total protein levels. (N=5 independent experiments, Data are mean±SEM, Mann-Whitney U test: *p<0.05). […] FIG. 8E illustrates ENDOGLIN (green) and IB4 (white) staining of retinal flat-mounts from P5 Alk1^fl/fl, Alk1^fl/fl treated with CDK4/6i, Alk1EC^iKO, and Alk1EC^iKO treated with CDK4/6i animals (A: Artery; V: Vein). FIG. 8F illustrates quantification of fluorescence intensity of ENDOGLIN staining in (FIG. 8E) retinal venous vessels of the indicated animals (N=4 retinas per group. Data are mean±SEM, one-way ANOVA with Tukey's multiple comparison test: *p<0.05; ns p>0.05). FIG. 8G illustrates timeline used for Tx injection, and CDK4/6i and FLT1 blocking antibody treatment of Alk1EC^iKO pups. […]
Eyes from P7 pups were pre-fixed in 4% PFA for 20 min at room temperature (RT). […] Quantification of vascular progression, density, AVM numbers and vessel diameters in the retinal vasculature were performed with Image J software.

[3] = system: human umbilical vein endothelial cells; test: Proliferation of human umbilical vein endothelial cells assessed by EdU uptake; type: cell-based; settings: in vitro, dose response
Description: FIG. 16 illustrates palbociclib, CVT-313 and ribociclib dose response effects on proliferation of human umbilical vein endothelial cells assessed by EdU uptake.
This example discusses that endothelial cell cycle dysregulation is a mechanism involved in the development of arterio-venous malformations in HHT, as well as other types of vascular malformations named above. Palbociclib, a FDA-approved cell cycle inhibitor, could be used to prevent arterio-venous and other malformations, including venous, capillary, lymphatic and cerebral cavernous malformations.

[4] = system: VEGF-A signaling; test: VEGF-A-induced AKT phosphorylation in Alk1 siRNA-silenced HUVECs; type: cell-based, human; settings: treated or not with Palbociclib
Description: Next, we treated HUVECs with Alk1 siRNA to silence Alk1 and test the VEGF-A-induced response, with or without Palbociclib treatment, using pAKT activation as a readout.

[5] = system: retinal vascular development of control pups; test: CDK4/6i treatment alone in control C57BL/6 pups, retinal vasculature; type: in vivo, mouse; settings: P7 control pups, no BMP9/10 Abs
Description: FIGS. 10A and 10B illustrate the timeline used for CDK4/6i treatment alone in C57BL/6 pups and representative images showing retinal vasculature of P7 animals labelled with IB4 (N=3 to 4 animals/group). Vascular perfusion assessed using blue latex dye in lungs (FIGS. 10C-D), duodenum (FIGS. 10E-F) and brain (FIGS. 10G-H) from control, BMP9/10 Abs-treated, BMP9/10 Abs- and CDK4/6i-treated P7 animals. Lung samples have been clarified. Quantifications of intrapulmonary artery diameter (FIG. 10D) and intestinal capillary diameter (FIG. 10F). Red arrows indicate intestinal capillaries (N=3 to 7 animals/group. Data are mean±SEM, one-way ANOVA with Holm-Šidàk's multiple comparison test, **p≤0.01, *p≤0.05, ns p>0.05). Quantification of left middle cerebral artery (MCA) and basilar artery (BA) diameter (FIG. 10H). (N=5 to 9 animals/group. Data are mean±SEM, one-way ANOVA with Holm-Sidak's multiple comparison test, ns p>0.05). Scale bars: (FIGS. 10C and 10G): 2 mm, (E): 1 mm.
Thus, to test whether the use of pharmacological cell cycle modulators could prevent the development of AVMs in a murine model of HHT, we used Palbociclib, a CDK4 and CDK6 inhibitor (CDK4/6i) that blocks the transition from G1 to S state^8. Pups were injected at P2 and P4 with BMP9/10 antibodies, followed by Palbociclib treatment starting at P4, then at P5 and P6 (FIG. 2A).

Structure (SMILES): CC(=O)c1c(C)c2cnc(Nc3ccc(N4CCNCC4)cn3)nc2n(C2CCCC2)c1=O [Palbociclib, 6-acetyl-8-cyclopentyl-5-methyl-2-[5-(1-piperazinyl)pyridine-2-ylamino]pyrido[2,3-d]pyrimidin-7(8H)-one]
- brain vascular anomalies in adult Alk1 mutant animals [1]: regressed anomalies observed in the brain vasculature; also recorded: regressed brain vascular anomalies
- expression of ENDOGLIN in venous ECs [2]: promoted the expression of ENDOGLIN in venous ECs
- EC proliferation assessed by EdU uptake [3]: inhibit EC proliferation
- pAKT activation induced by VEGF-A in Alk1 silenced HUVECs [4]: did not detect any differences
- retinal vascular development under CDK4/6i treatment by itself [5]: did not impair retinal vascular development
